This experiment deals with Puccinia recondita tritici = Puccinia triticina (PUCCRT). The experiment is described as follows: Fungicidal activity vs. leaf rust on wheat plants. The following applies: wheat (Yuma) sprayed at 50 ppm, inoculated the following day, rated 7-9 days later, read-out: Puccinia Rating (% Disease Control @ 50 ppm). The experiment is classed as in vivo. From the text:
D. Evaluation of Fungicidal Activity vs. Leaf Rust (Causal Agent Puccinia Recondita Tritici=Puccinia Triticina; Bayer Code PUCCRT)
Each pot contained 3-8 seedlings. These plants were sprayed until wet with the formulated test compounds. The compounds were formulated at 50 ppm in 10 vol. % acetone plus 90 vol. % Triton X water (deionized water 99.99 wt %+0.01 wt % Triton X100), giving a “formulated test compound.” Formulated test compounds were applied to plants using a turn table sprayer fitted with two opposing air atomization nozzles which delivered approximately 1500 L/ha of spray volume. On the following day, the leaves were inoculated with an aqueous spore suspension of Puccinia recondita tritici and the plants were kept in high humidity overnight to permit spores to germinate and infect the leaf. The plants were then transferred to a greenhouse until disease developed on untreated control plants. Disease severity was evaluated 7-9 days later, depending on the speed of disease development.
In each case of Table 3, the Puccinia rating scale is as follows: […]

A value given as a limit tells only on which side of the number the result lay.

Regarding `N#Cc1ccc(Oc2ccc(C(F)(F)C(O)(Cn3cnnn3)c3ccc(F)cc3F)nc2)nc1` (stereo not drawn) [Compound 93, 6-((6-(2-(2,4-difluorophenyl)-1,1-difluoro-2-hydroxy-3-(1H-tetrazol-1-yl)propyl)pyridin-3-yl)oxy)nicotinonitrile], the pest or weed control at 50 ppm fell in the range of 80 to 100%.

For `OC(Cn1cnnn1)(c1ccc(F)cc1F)C(F)(F)c1ccc(Oc2ccc(C(F)(F)F)cn2)cn1` (stereo not drawn) [Compound 94, 2-(2,4-difluorophenyl)-1,1-difluoro-3-(1H-tetrazol-1-yl)-1-(5-((5-(trifluoromethyl)pyridin-2-yl)oxy)pyridin-2-yl)propan-2-ol], the pest or weed control at 50 ppm lay within 80 to 100%.

With `OC(Cn1cnnn1)(c1ccc(F)cc1F)C(F)(F)c1ccc(Oc2ccc(Cl)cn2)cn1` (stereo not drawn) [Compound 95, 1-(5-((5-chloropyridin-2-yl)oxy)pyridin-2-yl)-2-(2,4-difluorophenyl)-1,1-difluoro-3-(1H-tetrazol-1-yl)propan-2-ol], the pest or weed control at 50 ppm lay in the range of 80 to 100%.

`N#Cc1cc(Oc2ccc(C(F)(F)C(O)(Cn3cnnn3)c3ccc(F)cc3F)nc2)ccn1` (stereo not drawn) [Compound 96, 4-((6-(2-(2,4-difluorophenyl)-1,1-difluoro-2-hydroxy-3-(1H-tetrazol-1-yl)propyl)pyridin-3-yl)oxy)picolinonitrile]: the pest or weed control at 50 ppm lay within 60 to 79%.

On to `OC(Cn1cnnn1)(c1ccc(F)cc1F)C(F)(F)c1ccc(Oc2ncccn2)cn1` (stereo not drawn) [Compound 97, 2-(2,4-difluorophenyl)-1,1-difluoro-1-(5-(pyrimidin-2-yloxy)pyridin-2-yl)-3-(1H-tetrazol-1-yl)propan-2-ol], for which the pest or weed control at 50 ppm lay in the range of 80 to 100%.

For the molecule `OC(Cn1cnnn1)(c1ccc(F)cc1F)C(F)(F)c1ccc(Oc2ncc(Cl)cn2)cn1` (stereo not drawn) [Compound 98, 1-(5-((5-chloropyrimidin-2-yl)oxy)pyridin-2-yl)-2-(2,4-difluorophenyl)-1,1-difluoro-3-(1H-tetrazol-1-yl)propan-2-ol], the pest or weed control at 50 ppm lay within 80 to 100%.

In the case of `OC(Cn1cnnn1)(c1ccc(F)cc1F)C(F)(F)c1ccc(Oc2ncc(Br)cn2)cn1` (stereo not drawn) [Compound 99, 1-(5-((5-bromopyrimidin-2-yl)oxy)pyridin-2-yl)-2-(2,4-difluorophenyl)-1,1-difluoro-3-(1H-tetrazol-1-yl)propan-2-ol], the pest or weed control at 50 ppm is 80 to 100%.

Turning to `N#Cc1ncc(Oc2ccc(C(F)(F)C(O)(Cn3cnnn3)c3ccc(F)cc3F)nc2)cn1` (stereo not drawn) [Compound 100, 5-((6-(2-(2,4-difluorophenyl)-1,1-difluoro-2-hydroxy-3-(1H-tetrazol-1-yl)propyl)pyridin-3-yl)oxy)pyrimidine-2-carbonitrile], the pest or weed control at 50 ppm lay in the range of 60 to 79%.

Take `O=Cc1ccc(Oc2ccc(C(F)(F)C(O)(Cn3cnnn3)c3ccc(F)cc3F)nc2)nc1` (stereo not drawn) [Compound 101, 6-((6-(2-(2,4-difluorophenyl)-1,1-difluoro-2-hydroxy-3-(1H-tetrazol-1-yl)propyl)pyridin-3-yl)oxy)nicotinaldehyde]: the pest or weed control at 50 ppm is under 40%.

For the molecule `CO/N=C/c1ccc(Oc2ccc(C(F)(F)C(O)(Cn3cnnn3)c3ccc(F)cc3F)nc2)nc1` (stereo not drawn) [Compound 102, (E)-6-((6-(2-(2,4-difluorophenyl)-1,1-difluoro-2-hydroxy-3-(1H-tetrazol-1-yl)propyl)pyridin-3-yl)oxy)nicotinaldehyde O-methyl oxime], the pest or weed control at 50 ppm fell in the range of 80 to 100%.

Take `OC(Cn1cnnn1)(c1ccc(F)cc1F)C(F)(F)c1ccc(Oc2ccc(/C=N/OCc3ccccc3)cn2)cn1` (stereo not drawn) [Compound 103, (E)-6-((6-(2-(2,4-difluorophenyl)-1,1-difluoro-2-hydroxy-3-(1H-tetrazol-1-yl)propyl)pyridin-3-yl)oxy)nicotinaldehyde O-benzyl oxime]: the pest or weed control at 50 ppm is 60 to 79%.

On to `OC(Cn1cnnn1)(c1ccc(F)cc1F)C(F)(F)c1ccc(Oc2ncc(C(F)(F)F)cc2F)cn1` (stereo not drawn) [Compound 104, 2-(2,4-difluorophenyl)-1,1-difluoro-1-(5-((3-fluoro-5-(trifluoromethyl)pyridin-2-yl)oxy)pyridin-2-yl)-3-(1H-tetrazol-1-yl)propan-2-ol], for which the pest or weed control at 50 ppm was 80 to 100%.

For `OC(Cn1cnnn1)(c1ccc(F)cc1F)C(F)(F)c1ccc(Oc2ncc(C(F)(F)F)cn2)cn1` (stereo not drawn) [Compound 105, 2-(2,4-difluorophenyl)-1,1-difluoro-3-(1H-tetrazol-1-yl)-1-(5-((5-(trifluoromethyl)pyrimidin-2-yl)oxy)pyridin-2-yl)propan-2-ol], the pest or weed control at 50 ppm fell in the range of 80 to 100%.

`OC(Cn1cnnn1)(c1ccc(F)cc1F)C(F)(F)c1ccc(Oc2ccc(Br)cn2)cn1` (stereo not drawn) [Compound 106, 1-(5-((5-bromopyridin-2-yl)oxy)pyridin-2-yl)-2-(2,4-difluorophenyl)-1,1-difluoro-3-(1H-tetrazol-1-yl)propan-2-ol]: the pest or weed control at 50 ppm lay in the range of 80 to 100%.

For the molecule `N#Cc1cnc(Oc2ccc(C(F)(F)C(O)(Cn3cnnn3)c3ccc(F)cc3F)nc2)s1` (stereo not drawn) [Compound 107, 2-((6-(2-(2,4-difluorophenyl)-1,1-difluoro-2-hydroxy-3-(1H-tetrazol-1-yl)propyl)pyridin-3-yl)oxy)thiazole-5-carbonitrile], the pest or weed control at 50 ppm is under 40%.

As to `OC(Cn1cnnn1)(c1ccc(F)cc1F)C(F)(F)c1ccc(OCc2ccc(Cl)cn2)cn1` (stereo not drawn) [Compound 113, 1-(5-((5-chloropyridin-2-yl)methoxy)pyridin-2-yl)-2-(2,4-difluorophenyl)-1,1-difluoro-3-(1H-tetrazol-1-yl)propan-2-ol], the pest or weed control at 50 ppm was in the range of 80 to 100%.

Consider `OC(Cn1cnnn1)(c1ccc(F)cc1F)C(F)(F)c1ccc(OCc2ccc(C(F)(F)F)cn2)cn1` (stereo not drawn) [Compound 114, 2-(2,4-difluorophenyl)-1,1-difluoro-3-(1H-tetrazol-1-yl)-1-(5-((5-(trifluoromethyl)pyridin-2-yl)methoxy)pyridin-2-yl)propan-2-ol], for which the pest or weed control at 50 ppm was in the range of 80 to 100%.

In the case of `OC(Cn1cnnn1)(c1ccc(F)cc1F)C(F)(F)c1ccc(OCc2ccc(C(F)(F)F)nc2)cn1` (stereo not drawn) [Compound 115, 2-(2,4-difluorophenyl)-1,1-difluoro-3-(1H-tetrazol-1-yl)-1-(5-((6-(trifluoromethyl)pyridin-3-yl)methoxy)pyridin-2-yl)propan-2-ol], the pest or weed control at 50 ppm lay in the range of 80 to 100%.

For the molecule `OC(Cn1cnnn1)(c1ccc(F)cc1F)C(F)(F)c1ccc(OCc2ccc(Cl)nc2)cn1` (stereo not drawn) [Compound 116, 1-(5-((6-chloropyridin-3-yl)methoxy)pyridin-2-yl)-2-(2,4-difluorophenyl)-1,1-difluoro-3-(1H-tetrazol-1-yl)propan-2-ol], the pest or weed control at 50 ppm was 80 to 100%.

As to `OC(Cn1cnnn1)(c1ccc(F)cc1F)C(F)(F)c1ccc(OCc2ccnc(Cl)c2)cn1` (stereo not drawn) [Compound 117, 1-(5-((2-chloropyridin-4-yl)methoxy)pyridin-2-yl)-2-(2,4-difluorophenyl)-1,1-difluoro-3-(1H-tetrazol-1-yl)propan-2-ol], the pest or weed control at 50 ppm lay within 80 to 100%.

On to `OC(Cn1cnnn1)(c1ccc(F)cc1F)C(F)(F)c1ccc(OCc2ccncc2)cn1` (stereo not drawn) [Compound 118, 2-(2,4-difluorophenyl)-1,1-difluoro-1-(5-(pyridin-4-ylmethoxy)pyridin-2-yl)-3-(1H-tetrazol-1-yl)propan-2-ol], for which the pest or weed control at 50 ppm was under 40%.

Values taken from US8796001B2, “Metalloenzyme inhibitor compounds” (Viamet Pharmaceuticals, Inc., priority 2011, dated 2014).
